Tests used:
[1] = tested on: MRSA (methicillin-resistant Staphylococcus aureus), ATCC 33592; assay: Test Method B2 - Second Antimicrobial Efficacy Testing; assay type: cell-based; conditions: 4 minutes
Method: A 0.22% wt/wt solution of CHG was prepared at a pH of 6. All pH adjustments were made using either gluconic acid or sodium hydroxide. Each of the above excipient solutions (5 mL) were mixed with an equal amount (5 mL) of CHG solution (0.22% wt/wt). The mixtures were allowed to stand for 15 minutes at ambient conditions, along with a control CHG solution. All of these samples were centrifuged at 14,000 g for 15 minutes. After centrifugation, supernatant was carefully transferred to a new vial and submitted for Antimicrobial Efficacy testing (TEST METHOD B2) and HPLC testing (TEST METHOD C2), see below.
For Test Method B2 the above Test Method B was followed, with the following changes: • 1. Bacteria was MRSA (methicillin-resistant Staphylococcus aureus), ATCC 33592, instead of P. aeruginosa. • 2. Inoculum level was approximately 6.2 logs, instead of 5.8 logs. • 3. Incubation time with MRSA was 4 minutes, instead of 2.5 minutes. • 4. Neutralizer was Neutralizing Buffer, instead of D/E Neutralizing Broth. • 5. Incubation of the Petrifilm plates was 38 hours, instead of 43 hours.

[2] = Evaluation of Precipitate Formation with CHG; assay type: physicochemical; conditions: 1:1 mixture of excipient solution with 3.72% CHG, visual within 30 minutes; for Precipitation at Low pH: low pH per sample
Method: It is thought that some excipients (inactives) may form a CHG complex, which is visible as a precipitate. Thus, CHG which complexes with an excipient, forming a precipitate would not be available for antimicrobial efficacy. The purpose of the precipitation formation testing was to observe the potential of an excipient to form a precipitates with CHG under the following test conditions.
Sample excipient solutions were prepared with distilled water to various concentrations of excipients according to Tables 12-16, below. The pH of the solutions was then adjusted to both a low pH and a high pH using either gluconic acid or NaOH. […] After combining the CHG solution with the excipient solution, the vial of the mixture was briefly swirled to mix. The mixtures were visually assessed for the presence/formation of a precipitate within 30 minutes. The results are shown in Tables P1-P5, where “Y” means precipitate was observed; “N” means no precipitate was observed; “*1” means the mixture could not be tested because a gel-like mass was formed when adding gluconic acid to reduce the pH down; and “*2” means the mixture could not be tested because it started to thicken when adding NaOH to raise the pH.

| SMILES | Log Reduction of MRSA ([1]; CHG 0.22 wt % control, excipient 0.0 wt %) | Precipitation at High pH [2] | Precipitation at Low pH [2] | Log Reduction of MRSA ([1]; supernatant of 0.50 wt % excipient solution mixed with equal amount of 0.22 wt % CHG) |
| --- | --- | --- | --- | --- |
| N=C(NCCCCCCNC(=N)NC(=N)Nc1ccc(Cl)cc1)NC(=N)Nc1ccc(Cl)cc1.O=C(O)[C@H](O)[C@@H](O)[C@H](O)[C@H](O)CO.O=C(O)[C@H](O)[C@@H](O)[C@H](O)[C@H](O)CO [CHG Control, 1,11-hexamethylene bis[5-(p-chlorophenyl)biguanide]di-D-gluconate, reference compound] | 3.0 |  |  |  |
| O=C1NS(=O)(=O)c2ccccc21.[Na] [P1, Sodium Saccharin] |  | Y | Y |  |
| C/C=C/C=C/C(=O)[O-].[K+] [P4, Potassium Sorbate] |  | Y |  |  |
| O=C([O-])c1ccccc1.[Na+] [P7, Sodium Benzoate] |  | Y | Y |  |
| [Cl-].[K+] [P10, KCL] |  | Y | Y |  |
| [Cl-].[K+] [P11, KCL] |  | Y | Y |  |
| [Cl-].[K+] [P12, KCL] |  | N | N |  |
| [Cl-].[Na+] [P13, NaCl] |  | Y | Y |  |
| O=P(O)(O)O [P16, H3PO4] |  | Y | Y |  |
| O=C(O)CC(O)(CC(=O)O)C(=O)O [P19, Citric Acid] |  | Y | Y |  |
| O=C1[N-]S(=O)(=O)c2ccccc21.[Na+] [Sodium Saccharin, Benzoic Sulphimide Sodium Salt] |  |  |  | 0.0 |
